Values quoted from earlier work, collected in US10308663B2, “Inhibitors of PTP4A3 for the treatment of cancer” (University of Virginia Patent Foundation, priority 2015, dated 2019).

Tested on: YOP(H?)
Settings: DiFMUP as a substrate; reported by Hoeger et al.; cited from earlier work

For `Nc1c[nH]c(=O)c2cc(-c3ccccc3)sc12` [Thienopyridone (5), 7-amino-2-phenylthieno[3,2-c]pyridin-4(5H)-one], the IC50 is listed as 61 µM.
